The record followed here is patent publication US7781451B2, “Thiazolopyridine derivatives, pharmaceut ical conditions containing them and methods of treating glucokinase mediated conditions” (Novartis AG, priority 2004, dated 2010).

One data set has as its target T1, recombinant GST-GK (Homo sapiens, UniProt P35557).
T1 sequence (P35557 1-465): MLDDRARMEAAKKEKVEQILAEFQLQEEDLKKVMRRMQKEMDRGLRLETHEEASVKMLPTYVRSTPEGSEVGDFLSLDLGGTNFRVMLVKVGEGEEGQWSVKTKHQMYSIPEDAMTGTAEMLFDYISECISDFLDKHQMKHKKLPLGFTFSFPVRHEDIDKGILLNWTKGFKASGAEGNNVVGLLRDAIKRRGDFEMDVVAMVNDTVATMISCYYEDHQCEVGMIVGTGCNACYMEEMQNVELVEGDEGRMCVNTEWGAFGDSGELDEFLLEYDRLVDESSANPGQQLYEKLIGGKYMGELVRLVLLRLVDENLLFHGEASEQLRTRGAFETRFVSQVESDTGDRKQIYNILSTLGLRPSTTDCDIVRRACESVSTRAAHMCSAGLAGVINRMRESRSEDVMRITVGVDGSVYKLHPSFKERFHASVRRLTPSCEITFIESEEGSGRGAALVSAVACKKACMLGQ
Description: in vitro assay measuring the activation of recombinant GST-GK. Format: biochemical. Conditions: thioNADH-coupled assay read at 405 nm. The text has this: The glucokinase activation in vitro may be determined by measuring the activation of recombinant GST-GK by a compound of the present invention in the absence or the presence of GKRP, a 68,000 Da protein inhibitor of GK. In these assays, formation of glucose-6-phosphate is coupled directly to the formation of thioNADH. GST-GK catalyzes the reaction of glucose and Mg-ATP to produce glucose-6-phosphate and ADP. Glucose-6-phosphate dehydrogenase (G6PDH) reduces thionicotinamide (thioNAD) to thioNADH. The assay measures the formation of […] at 405 nM.
The basic GK assay components are as follows: 25 mM HEPES (pH 7.1), 25 mM KCl, 2.5 mM MgCl2, 1 mM ATP (Sigma A-5394), 1 mM DTT, 1 mM thioNAD (Sigma T-7375), 80 units/mL G6PDH (Sigma G-5885), 10 mM glucose and […] GST-GK (110 nM). For assessing reversal of GK inhibition by GKRP, 20 μM Fructose-1-phosphate ([…]) and 25 μg/mL of recombinant GKRP (370 nM) are added to these assay components. F-1-P at 1 μM is used as a control in the GK/GKRP assay. F-1-P reverses inhibition of GST-GK by GKRP.
The assay is done in standard, 96-well, round-bottom plates and the total assay volume is 25 μL. […] The plates are then delivered via the Zymark XP arm to a Thermomax plate reader and read kinetically over three min at 405 nM at RT. Units are expressed as milli-optical density per minute (mOD/min).

One may read the melting point as the temperature, or range, at which the solid turns liquid. The EC50 is the midpoint of the concentration-response curve.

The structures appear in SMILES notation.

Regarding `CCOCS(=O)(=O)c1ccc(C(CC2CCCC2)C(=O)Nc2nc3ccc(OC)nc3s2)cc1` (stereo not shown) [Example 1, 3-Cyclopentyl-2-(4-ethoxymethanesulfonyl-phenyl)-N-(5-methoxy-thiazolo[5,4-b]pyridin-2-yl)-propionamide], the melting point was in the range of 158 to 160 °C. The EC50 on recombinant GST-GK is roughly 106 nM.

Regarding `COc1ccc2nc(NC(=O)C(CC3CCCC3)c3ccc(S(=O)(=O)CCc4ccccc4)cc3)sc2n1` (stereo not shown) [Example 3, 3-Cyclopentyl-N-(5-methoxy-thiazolo[5,4-b]pyridin-2-yl)-2-[4-(2-phenyl-ethanesulfonyl)-phenyl]-propionamide], the melting point was in the range of 169 to 172 °C.

`COc1ccc2nc(NC(=O)C(CC3CCCC3)c3ccc(S(=O)(=O)CC(C)=O)cc3)sc2n1` (stereo not shown) [Example 2, 3-Cyclopentyl-N-(5-methoxy-thiazolo[5,4-b]pyridin-2-yl)-2-[4-(2-oxo-propane-1-sulfonyl)-phenyl]-propionamide] returned a melting point of 67 to 71 °C.
